Source: ChEMBL document CHEMBL3813616, “Discovery of novel 7-azaindoles as PDK1 inhibitors” (Bioorg Med Chem Lett, 2016)

Assays:
Design in all cases: scale not given: the % may be the effect or the level left
[1] = molecular target: Insulin receptor (Homo sapiens) (UniProt P06213); experiment: Inhibition of human IR (1001 to 1382 residues) assessed as enzyme activity at 1 uM using 33P ATP by radioactive filter binding assay
[2] = molecular target: Mitogen-activated protein kinase 8 (Homo sapiens) (UniProt P45983); experiment: Inhibition of human JNK1alpha1 assessed as enzyme activity at 1 uM using 33P ATP by radioactive filter binding assay
Mitogen-activated protein kinase 8 (Homo sapiens), sequence (P45983 whole entry, the tested form may be a part): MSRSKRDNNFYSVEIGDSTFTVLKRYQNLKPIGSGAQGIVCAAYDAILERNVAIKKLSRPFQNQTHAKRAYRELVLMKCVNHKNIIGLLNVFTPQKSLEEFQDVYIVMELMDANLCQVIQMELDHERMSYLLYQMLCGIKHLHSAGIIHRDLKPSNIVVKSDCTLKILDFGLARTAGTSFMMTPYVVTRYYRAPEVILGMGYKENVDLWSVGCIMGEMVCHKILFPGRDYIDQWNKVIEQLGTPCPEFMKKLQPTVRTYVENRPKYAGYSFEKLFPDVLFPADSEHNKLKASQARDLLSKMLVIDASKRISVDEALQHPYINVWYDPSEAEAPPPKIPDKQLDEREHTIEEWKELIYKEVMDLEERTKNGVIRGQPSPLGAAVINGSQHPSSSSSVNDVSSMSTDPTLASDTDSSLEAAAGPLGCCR

[3] = molecular target: Mitogen-activated protein kinase 3 (Homo sapiens) (UniProt P27361); experiment: Inhibition of human MAPK3 (2 to 544 residues) assessed as enzyme activity at 1 uM using 33P ATP by radioactive filter binding assay
Mitogen-activated protein kinase 3 (Homo sapiens), sequence (P27361 whole entry, the tested form may be a part): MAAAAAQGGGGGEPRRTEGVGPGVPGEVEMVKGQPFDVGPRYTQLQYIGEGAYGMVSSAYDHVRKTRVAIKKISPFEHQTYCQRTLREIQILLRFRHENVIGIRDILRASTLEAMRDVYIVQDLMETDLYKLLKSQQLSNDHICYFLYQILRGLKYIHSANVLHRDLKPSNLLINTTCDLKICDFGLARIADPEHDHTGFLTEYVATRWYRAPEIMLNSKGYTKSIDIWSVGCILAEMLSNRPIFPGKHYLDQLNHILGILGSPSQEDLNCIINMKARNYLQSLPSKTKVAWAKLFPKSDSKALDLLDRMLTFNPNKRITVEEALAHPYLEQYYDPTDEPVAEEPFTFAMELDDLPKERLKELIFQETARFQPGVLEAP

[4] = molecular target: Maternal embryonic leucine zipper kinase (Homo sapiens) (UniProt Q14680); experiment: Inhibition of human MELK (2 to 651 residues) assessed as enzyme activity at 1 uM using 33P ATP by radioactive filter binding assay
Maternal embryonic leucine zipper kinase (Homo sapiens), sequence (Q14680 whole entry, looked up, the tested form may be a part): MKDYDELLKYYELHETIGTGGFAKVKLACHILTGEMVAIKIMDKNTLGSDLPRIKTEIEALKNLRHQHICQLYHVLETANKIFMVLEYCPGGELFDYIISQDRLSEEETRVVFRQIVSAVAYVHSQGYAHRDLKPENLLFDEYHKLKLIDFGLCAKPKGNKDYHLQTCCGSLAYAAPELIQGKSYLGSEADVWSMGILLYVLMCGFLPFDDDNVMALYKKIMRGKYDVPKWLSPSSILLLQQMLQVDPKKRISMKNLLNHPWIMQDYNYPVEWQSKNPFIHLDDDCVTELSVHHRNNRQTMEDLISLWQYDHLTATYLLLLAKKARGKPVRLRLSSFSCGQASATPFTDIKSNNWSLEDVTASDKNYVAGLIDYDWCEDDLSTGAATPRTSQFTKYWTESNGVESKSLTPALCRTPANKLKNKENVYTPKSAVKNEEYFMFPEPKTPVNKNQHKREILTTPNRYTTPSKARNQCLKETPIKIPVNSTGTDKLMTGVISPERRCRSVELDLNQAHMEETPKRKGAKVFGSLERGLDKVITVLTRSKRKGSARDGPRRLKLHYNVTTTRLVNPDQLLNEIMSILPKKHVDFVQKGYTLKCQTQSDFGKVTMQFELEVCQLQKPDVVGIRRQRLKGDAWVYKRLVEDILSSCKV

[5] = molecular target: T1, Serine/threonine-protein kinase 3 (Homo sapiens) (UniProt Q13188); experiment: Inhibition of human MST2 (2 to 491 residues) assessed as enzyme activity at 1 uM using 33P ATP by radioactive filter binding assay
T1 sequence (whole entry): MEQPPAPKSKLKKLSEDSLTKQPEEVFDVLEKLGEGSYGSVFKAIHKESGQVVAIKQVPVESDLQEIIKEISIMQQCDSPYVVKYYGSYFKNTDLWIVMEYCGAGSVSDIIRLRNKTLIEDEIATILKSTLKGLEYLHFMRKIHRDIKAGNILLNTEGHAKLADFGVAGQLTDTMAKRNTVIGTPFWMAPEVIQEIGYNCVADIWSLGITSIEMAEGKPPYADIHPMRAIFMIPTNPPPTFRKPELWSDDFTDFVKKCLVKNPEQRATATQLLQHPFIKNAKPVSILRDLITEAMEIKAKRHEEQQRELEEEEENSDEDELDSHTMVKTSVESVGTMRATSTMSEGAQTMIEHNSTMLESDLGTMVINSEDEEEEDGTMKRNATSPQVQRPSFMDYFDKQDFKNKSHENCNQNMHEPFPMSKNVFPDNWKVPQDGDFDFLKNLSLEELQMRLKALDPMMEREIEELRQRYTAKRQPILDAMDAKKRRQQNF

[6] = molecular target: Serine/threonine-protein kinase PAK 4 (Homo sapiens) (UniProt O96013); experiment: Inhibition of human PAK4 (2 to 591 residues) assessed as enzyme activity at 1 uM using 33P ATP by radioactive filter binding assay
Serine/threonine-protein kinase PAK 4 (Homo sapiens), sequence (O96013 whole entry, looked up, the tested form may be a part): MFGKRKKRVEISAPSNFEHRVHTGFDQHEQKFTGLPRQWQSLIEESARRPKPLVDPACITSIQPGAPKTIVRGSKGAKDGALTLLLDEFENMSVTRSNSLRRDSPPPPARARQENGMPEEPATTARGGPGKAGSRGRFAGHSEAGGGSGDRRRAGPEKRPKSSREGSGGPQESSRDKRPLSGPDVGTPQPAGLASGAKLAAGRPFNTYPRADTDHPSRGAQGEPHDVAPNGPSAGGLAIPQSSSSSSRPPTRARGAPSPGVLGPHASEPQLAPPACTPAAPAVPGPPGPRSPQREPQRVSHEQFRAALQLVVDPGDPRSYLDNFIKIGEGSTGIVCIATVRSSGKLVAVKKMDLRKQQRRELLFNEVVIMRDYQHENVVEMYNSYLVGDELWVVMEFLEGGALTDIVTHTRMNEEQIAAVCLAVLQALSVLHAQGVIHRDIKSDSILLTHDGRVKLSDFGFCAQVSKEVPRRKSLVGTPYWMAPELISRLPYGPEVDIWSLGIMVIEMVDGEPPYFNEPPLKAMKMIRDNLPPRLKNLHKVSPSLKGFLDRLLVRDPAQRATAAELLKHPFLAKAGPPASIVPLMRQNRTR

[7] = molecular target: T2, Serine/threonine-protein kinase D1 (Homo sapiens) (UniProt Q15139); experiment: Inhibition of human PKD1 (2 to 912 residues) assessed as enzyme activity at 1 uM using 33P ATP by radioactive filter binding assay
T2 sequence (whole entry): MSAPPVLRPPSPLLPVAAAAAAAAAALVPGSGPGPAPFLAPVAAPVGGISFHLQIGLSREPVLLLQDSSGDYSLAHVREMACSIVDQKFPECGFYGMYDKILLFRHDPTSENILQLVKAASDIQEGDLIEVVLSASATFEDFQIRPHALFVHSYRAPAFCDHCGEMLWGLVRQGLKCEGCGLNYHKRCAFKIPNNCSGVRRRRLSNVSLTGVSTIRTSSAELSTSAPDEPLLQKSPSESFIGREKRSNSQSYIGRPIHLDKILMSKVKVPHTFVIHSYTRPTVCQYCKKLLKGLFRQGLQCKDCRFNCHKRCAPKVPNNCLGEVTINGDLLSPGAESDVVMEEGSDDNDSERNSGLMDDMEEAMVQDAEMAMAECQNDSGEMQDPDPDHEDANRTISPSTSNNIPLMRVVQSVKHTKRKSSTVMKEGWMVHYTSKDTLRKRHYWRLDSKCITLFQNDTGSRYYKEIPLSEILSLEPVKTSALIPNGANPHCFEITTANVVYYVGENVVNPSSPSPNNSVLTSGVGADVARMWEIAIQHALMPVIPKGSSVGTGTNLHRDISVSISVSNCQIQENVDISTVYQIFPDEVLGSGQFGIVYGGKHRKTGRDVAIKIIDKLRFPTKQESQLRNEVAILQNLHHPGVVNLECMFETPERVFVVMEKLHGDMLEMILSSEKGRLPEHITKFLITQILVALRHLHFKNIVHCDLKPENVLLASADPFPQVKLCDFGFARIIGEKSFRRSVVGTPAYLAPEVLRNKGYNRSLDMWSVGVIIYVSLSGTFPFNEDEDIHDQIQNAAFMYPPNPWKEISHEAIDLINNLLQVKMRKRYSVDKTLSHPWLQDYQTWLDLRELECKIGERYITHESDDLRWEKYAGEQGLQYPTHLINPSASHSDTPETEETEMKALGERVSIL

[8] = molecular target: Mitogen-activated protein kinase 14 (Homo sapiens) (UniProt Q16539); experiment: Inhibition of SAPK2a (unknown origin) assessed as enzyme activity at 1 uM using 33P ATP by radioactive filter binding assay
[9] = molecular target: Mitogen-activated protein kinase 11 (Homo sapiens) (UniProt Q15759); experiment: Inhibition of SAPK2b (unknown origin) assessed as enzyme activity at 1 uM using 33P ATP by radioactive filter binding assay
Mitogen-activated protein kinase 11 (Homo sapiens), sequence (Q15759 whole entry): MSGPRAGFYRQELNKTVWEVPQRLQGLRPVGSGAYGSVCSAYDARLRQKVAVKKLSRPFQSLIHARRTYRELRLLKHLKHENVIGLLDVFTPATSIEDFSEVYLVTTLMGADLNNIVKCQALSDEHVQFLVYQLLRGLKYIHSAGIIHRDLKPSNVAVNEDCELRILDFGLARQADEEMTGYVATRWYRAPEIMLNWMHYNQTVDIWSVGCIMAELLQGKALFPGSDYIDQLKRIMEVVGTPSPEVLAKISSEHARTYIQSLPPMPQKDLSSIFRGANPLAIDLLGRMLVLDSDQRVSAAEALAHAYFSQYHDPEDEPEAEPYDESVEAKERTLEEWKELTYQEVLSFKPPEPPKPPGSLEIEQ

[10] = molecular target: T3, Mitogen-activated protein kinase 13 (Homo sapiens) (UniProt O15264); experiment: Inhibition of SAPK4 (unknown origin) assessed as enzyme activity at 1 uM using 33P ATP by radioactive filter binding assay
T3 sequence (whole entry): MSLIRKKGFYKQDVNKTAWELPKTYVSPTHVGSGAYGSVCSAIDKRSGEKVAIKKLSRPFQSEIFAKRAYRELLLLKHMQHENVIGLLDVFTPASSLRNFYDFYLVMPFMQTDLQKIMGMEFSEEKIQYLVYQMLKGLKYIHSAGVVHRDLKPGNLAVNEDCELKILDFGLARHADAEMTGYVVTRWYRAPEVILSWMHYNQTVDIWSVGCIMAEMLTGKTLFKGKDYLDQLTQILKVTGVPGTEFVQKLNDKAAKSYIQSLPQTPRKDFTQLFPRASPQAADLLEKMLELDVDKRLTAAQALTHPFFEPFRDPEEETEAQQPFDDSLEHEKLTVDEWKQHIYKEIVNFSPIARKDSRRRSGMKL

[11] = molecular target: Vascular endothelial growth factor receptor (Homo sapiens) (UniProt P17948+P35916+P35968); experiment: Inhibition of human VEGFR assessed as enzyme activity at 1 uM using 33P ATP by radioactive filter binding assay; format: protein assay
[12] = molecular target: Aurora kinase B (Homo sapiens) (UniProt Q96GD4); experiment: Inhibition of human Aurora B (1 to 344 residues) assessed as enzyme activity at 1 uM using 33P ATP by radioactive filter binding assay
Aurora kinase B (Homo sapiens), sequence (Q96GD4 whole entry, the tested form may be a part): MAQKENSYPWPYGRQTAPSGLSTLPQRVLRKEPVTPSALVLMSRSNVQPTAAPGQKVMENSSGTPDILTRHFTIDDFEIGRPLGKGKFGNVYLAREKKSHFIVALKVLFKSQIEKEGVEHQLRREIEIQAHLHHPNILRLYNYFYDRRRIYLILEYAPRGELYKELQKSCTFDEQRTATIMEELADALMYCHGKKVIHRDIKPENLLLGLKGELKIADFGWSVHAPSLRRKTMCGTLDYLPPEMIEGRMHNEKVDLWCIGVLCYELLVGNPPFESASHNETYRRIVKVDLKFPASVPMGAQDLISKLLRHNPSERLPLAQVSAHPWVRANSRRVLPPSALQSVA

[13] = molecular target: Calcium/calmodulin-dependent protein kinase kinase 2 (Homo sapiens) (UniProt Q96RR4); experiment: Inhibition of human CAMKKb (1 to 541 residues) assessed as enzyme activity at 1 uM using 33P ATP by radioactive filter binding assay
[14] = molecular target: Serine/threonine-protein kinase Chk2 (Homo sapiens) (UniProt O96017); experiment: Inhibition of human CHK2 (5 to 543 residues) assessed as enzyme activity at 1 uM using 33P ATP by radioactive filter binding assay
Serine/threonine-protein kinase Chk2 (Homo sapiens), sequence (O96017 whole entry, the tested form may be a part): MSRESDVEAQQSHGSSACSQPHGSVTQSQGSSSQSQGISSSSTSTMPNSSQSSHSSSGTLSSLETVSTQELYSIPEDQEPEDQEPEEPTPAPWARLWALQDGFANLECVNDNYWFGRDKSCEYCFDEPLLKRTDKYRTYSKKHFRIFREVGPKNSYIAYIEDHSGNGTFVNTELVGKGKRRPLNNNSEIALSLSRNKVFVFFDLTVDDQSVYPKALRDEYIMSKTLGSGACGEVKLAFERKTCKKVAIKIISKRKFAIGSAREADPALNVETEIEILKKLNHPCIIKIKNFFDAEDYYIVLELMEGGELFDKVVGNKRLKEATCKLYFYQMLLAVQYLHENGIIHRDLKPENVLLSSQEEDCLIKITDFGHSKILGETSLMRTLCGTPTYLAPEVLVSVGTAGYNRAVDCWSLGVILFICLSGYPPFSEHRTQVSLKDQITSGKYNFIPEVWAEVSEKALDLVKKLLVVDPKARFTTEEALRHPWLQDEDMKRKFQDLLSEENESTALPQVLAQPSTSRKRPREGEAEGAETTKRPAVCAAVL

Insulin receptor (Homo sapiens), sequence (P06213 28-758 limits assumed): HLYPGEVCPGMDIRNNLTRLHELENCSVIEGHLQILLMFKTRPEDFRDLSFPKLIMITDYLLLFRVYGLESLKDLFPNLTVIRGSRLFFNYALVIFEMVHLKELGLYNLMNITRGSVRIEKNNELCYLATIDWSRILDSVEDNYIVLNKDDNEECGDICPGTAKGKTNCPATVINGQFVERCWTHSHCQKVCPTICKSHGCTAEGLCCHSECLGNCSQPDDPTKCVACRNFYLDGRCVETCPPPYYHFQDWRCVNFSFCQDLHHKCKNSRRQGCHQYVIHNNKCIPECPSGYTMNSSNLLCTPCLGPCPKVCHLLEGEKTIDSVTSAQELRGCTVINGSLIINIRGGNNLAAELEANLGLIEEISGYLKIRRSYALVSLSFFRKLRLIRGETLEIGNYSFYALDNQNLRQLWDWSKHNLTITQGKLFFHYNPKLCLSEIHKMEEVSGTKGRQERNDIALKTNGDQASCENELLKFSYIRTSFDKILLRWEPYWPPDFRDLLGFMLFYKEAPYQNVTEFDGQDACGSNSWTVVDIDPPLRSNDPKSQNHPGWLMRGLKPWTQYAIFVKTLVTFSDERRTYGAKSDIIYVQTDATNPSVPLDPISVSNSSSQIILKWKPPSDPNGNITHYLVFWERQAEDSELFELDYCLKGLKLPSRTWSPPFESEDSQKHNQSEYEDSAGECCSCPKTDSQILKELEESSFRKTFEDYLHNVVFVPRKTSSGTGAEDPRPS
Insulin receptor (Homo sapiens), sequence (P06213 763-1382 limits assumed): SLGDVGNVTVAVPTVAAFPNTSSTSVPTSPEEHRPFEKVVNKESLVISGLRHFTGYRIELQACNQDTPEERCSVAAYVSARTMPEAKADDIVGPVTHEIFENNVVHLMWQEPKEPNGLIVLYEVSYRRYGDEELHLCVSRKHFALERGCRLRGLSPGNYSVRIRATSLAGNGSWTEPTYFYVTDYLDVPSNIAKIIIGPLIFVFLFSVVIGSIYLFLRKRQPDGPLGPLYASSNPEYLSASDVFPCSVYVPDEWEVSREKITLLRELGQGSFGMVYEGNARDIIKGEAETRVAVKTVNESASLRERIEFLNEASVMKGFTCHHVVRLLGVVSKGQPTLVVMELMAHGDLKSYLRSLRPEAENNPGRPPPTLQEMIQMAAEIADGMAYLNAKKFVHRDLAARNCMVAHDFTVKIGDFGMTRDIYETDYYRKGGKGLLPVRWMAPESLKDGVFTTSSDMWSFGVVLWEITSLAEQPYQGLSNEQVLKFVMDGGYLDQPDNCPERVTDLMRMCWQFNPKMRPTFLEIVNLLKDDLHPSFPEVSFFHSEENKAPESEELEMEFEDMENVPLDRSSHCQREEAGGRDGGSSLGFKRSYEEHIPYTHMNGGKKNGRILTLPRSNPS

Activity [1] | Activity [2] | Activity [3] | Activity [4] | Activity [5] | Activity [6] | Activity [7] | Activity [8] | Activity [9] | Activity [10] | Activity [11] | Activity [12] | Activity [13] | Activity [14] | Structure (SMILES)
-6% | -5% | -77% | -64% | -20% | -22% | -41% | -5% | -4% | -27% | -44% | -31% | -31% | -37% | Nc1nccc(-c2c[nH]c3ncccc23)n1 [MERIOLIN 1]
-8% | -31% | -95% | -81% | -63% | -47% | -96% | -16% | -18% | -22% | -97% | – | -58% | -81% | CCc1cc(-c2c[nH]c3ncc(-c4cnn(C5CCNCC5)c4)cc23)nc(N)n1
– | -6% | -54% | -89% | -33% | 1% | -53% | -10% | -5% | -37% | – | -16% | -2% | -44% | CCCCc1cc(-c2c[nH]c3ncccc23)nc(N)n1
-28% | -41% | -97% | -85% | -86% | -60% | -98% | -22% | -21% | -34% | -97% | -62% | -86% | -92% | CCCCc1cc(-c2c[nH]c3ncc(-c4cnn(C5CCNCC5)c4)cc23)nc(N)n1
